Drawing on patent US20190127366A1 (LifeSci Pharmaceuticals, Inc., priority 2015, published 2019), this text covers IC50 and EC50 for 18 compounds.

Assay [1] concerns the target T1, human complement factor D (Homo sapiens, UniProt P00746).
T1 construct: purchased R&D Systems 1824-SE
The assay can be described thus: In vitro enzyme inhibition (Z-Lys-SBzl/DTNB absorbance assay). The format is biochemical. The note with it: Complement Factor D (R&D Systems), substrate Z-Lys-SBzl, A405 nm; read-out: CFD IC50. In short, it runs like this:
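Factor D (6.25 ng/μL before addition) preincubated 5 min RT with compound (8 points from 50 μM, 6-fold, 0.5% DMSO final) in 50 mM Tris/HCl pH 7.5, 1 M NaCl, then Z-Lys-SBzl/DTNB added (200 μM each before addition). A405 read kinetically every 30 s for 60 min; IC50 from variable-slope fit, controls with and without enzyme.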

The subject of assay [2] is alternative pathway (AP) hemolytic activity. As to the kind of experiment: AP hemolysis inhibition assay. The note with it: Erythrocyte, 1 h; Normal Human Serum, chicken or rabbit erythrocytes, 60 min at 37° C., OD 414 nm. The class given is cell-based. As for the experimental part: The ability of the compounds disclosed herein to inhibit alternative pathway (AP) hemolytic activity was determined. Red blood cells (RBC), chicken or rabbit erythrocyctes (SbjBio), were washed three time using assay buffer containing 0.1% gelatin, 5 mM Veronal, 145 mM NaCl, 0.025% NaN3, 10 mM Mg-EGTA pH 7.3. In 100 μL reaction system, 1300 to 1500 ng/μL final concentration of Normal Human Serum (CompTech) was incubated with compound for 15 min at 37° C. Then 2×10^6 cells/well of chicken or rabbit erythrocytes in assay buffer were added and incubated for an additional 60 min at 37° C. Positive control (100% lysis) consists of serum and RBC, and negative control (0% lysis) consists of assay buffer and RBC only. Samples were centrifuged at 2000 g for 5 min, and supernatants collected. Optical density of the supernatant is monitored at 414 nm using Synergy 2 (BioTek). Percentage lysis in each sample is calculated relative to positive control (100% lysis).
Table 3 discloses the inhibitory activity of the compounds provided herein in the hemolysis assay.

A value given as a limit tells only on which side of the number the result lay.

T1 sequence (P00746 26-253): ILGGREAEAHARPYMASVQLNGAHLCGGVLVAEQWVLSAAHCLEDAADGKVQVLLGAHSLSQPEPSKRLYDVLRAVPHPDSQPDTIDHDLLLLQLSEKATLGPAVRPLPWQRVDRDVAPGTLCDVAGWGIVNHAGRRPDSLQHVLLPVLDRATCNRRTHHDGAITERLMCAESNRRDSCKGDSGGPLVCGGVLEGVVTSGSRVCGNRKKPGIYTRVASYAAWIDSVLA

As to `NC(=O)c1nn(CC(=O)N2[C@H](C(=O)NCc3cccc(Cl)c3F)C[C@@H]3CCC[C@@H]32)c2ccccc12` [Example 157, 1-(2-((2S,3aS,6aS)-2-((3-chloro-2-fluorobenzyl)carbamoyl)hexahydrocyclopenta[b]pyrrol-1(2H)-yl)-2-oxoethyl)-1H-indazole-3-carboxamide], the IC50 in assay [1] was less than 100 nM. Further, in assay [2], the EC50 was in the range of 100 to 1000 nM.
In the case of `NC(=O)n1nc(CC(=O)N2CC[C@H]2C(=O)NCc2cccc(Cl)c2F)c2ccccc21` [Example 188, (S)-3-(2-(2-((3-chloro-2-fluorobenzyl)carbamoyl)azetidin-l-yl)-2-oxoethyl)-1H-indazole-1-carboxamide], in assay [1], the IC50 was less than 100 nM. Besides, the EC50 in assay [2] was in the range of 100 to 1000 nM.
Turning to `NC(=O)c1nn(CC(=O)N2CC[C@H]2C(=O)NCc2cccc(Cl)c2F)c2ccccc12` [Example 185, (S)-1-(2-(2-((3-chloro-2-fluorobenzyl)carbamoyl)azetidin-1-yl)-2-oxoethyl)-1H-indazole-3-carboxamide], the IC50 in assay [1] is less than 100 nM. Also, the EC50 in assay [2] was less than 100 nM.
With `NC(=O)c1nn(CC(=O)N2[C@@H]3CC[C@@H](C3)[C@H]2C(=O)Nc2cccc(Cl)c2F)c2ccccc12` [Example 18, 1-(2-((1R,3S,4S)-3-((3-chloro-2-fluorophenyl)carbamoyl)-2-azabicyclo[2.2.1]heptan-2-yl)-2-oxoethyl)-1H-indazole-3-carboxamide], in assay [1], the IC50 lay in the range of 100 to 1000 nM. The EC50 in assay [2] was in the range of 1000 to 10000 nM.
With `NC(=O)c1nn(CC(=O)N2C(C(=O)NCc3cccc(Cl)c3F)[C@@H]3C[C@@H](O)[C@H]2[C@H]3O)c2ccccc12` (stereo partly drawn) [Example 152, 1-(2-((1S,4S,6R,7S)-3-((3-chloro-2-fluorobenzyl)carbamoyl)-6,7-dihydroxy-2-azabicyclo[2.2.1]heptan-2-yl)-2-oxoethyl)-1H-indazole-3-carboxamide], in assay [1], the IC50 is 100 to 1000 nM. In addition, the EC50 in assay [2] fell in the range of 100 to 1000 nM.
As for `NC(=O)c1nn(CC(=O)N2[C@@H]3CC[C@@H](C3)[C@H]2C(=O)Nc2cccc(Cl)n2)c2cc(C(=O)O)ccc12` [Example 123, 3-carbamoyl-1-(2-((1R,3S,4S)-3-((6-chloropyridin-2-yl)carbamoyl)-2-azabicyclo[2.2.1]heptan-2-yl)-2-oxoethyl)-1H-indazole-6-carboxylic acid], the IC50 in assay [1] is less than 100 nM. In assay [2], the EC50 is less than 100 nM.
In the case of `NC(=O)c1nn(CC(=O)N2CCCC[C@H]2C(=O)Nc2cccc(Cl)n2)c2ccccc12` [Example 21, (S)-1-(2-(2-((6-chloropyridin-2-yl)carbamoyl)piperidin-1-yl)-2-oxoethyl)-1H-indazole-3-carboxamide], in assay [1], the IC50 lay within 100 to 1000 nM. In assay [2], the concentration for a half-maximal effect (EC50) fell in the range of 1000 to 10000 nM.
The matching figures for `NC(=O)c1nn(CC(=O)N2[C@@H]3CC[C@@H](C3)[C@H]2C(=O)Nc2cccc(Br)n2)c2ccccc12` [Example 65, 1-(2-((1R,3S,4S)-3-((6-bromopyridin-2-yl)carbamoyl)-2-azabicyclo[2.2.1]heptan-2-yl)-2-oxoethyl)-1H-indazole-3-carboxamide]: less than 100 nM and 100 to 1000 nM.
The matching figures for `Cc1ccc2c(c1)c(C(N)=O)nn2CC(=O)N1[C@H](C(=O)Nc2cccc(Cl)n2)C[C@@H]2CCC[C@@H]21` [Example 168, 1-(2-((2S,3aS,6aS)-2-((6-chloropyridin-2-yl)carbamoyl)hexahydrocyclopenta[b]pyrrol-1(2H)-yl)-2-oxoethyl)-5-methy1-1H-indazole-3-carboxamide]: less than 100 nM and 100 to 1000 nM.
Turning to `NC(=O)c1nn(CC(=O)N2[C@@H]3CC[C@@H](C3)[C@H]2C(=O)Nc2cccc(Cl)n2)c2ccccc12` [Example 1, 1-(2-((1R,3S,4S)-3-((6-chloropyridin-2-yl)carbamoyl)-2-azabicyclo[2.2.1]heptan-2-yl)-2-oxoethyl)-1H-indazole-3-carboxamide], in assay [1], the IC50 is less than 100 nM. Also, the EC50 in assay [2] fell in the range of 100 to 1000 nM.
Consider `NC(=O)c1nn(CC(=O)N2[C@@H]3CC[C@@H](C3)[C@H]2C(=O)Nc2cccc(Cl)n2)c2cc(F)ccc12` [Example 71, 1-(2-((1R,3S,4S)-3-((6-chloropyridin-2-yl)carbamoyl)-2-azabicyclo[2.2.1]heptan-2-yl)-2-oxoethyl)-6-fluoro-1H-indazole-3-carboxamide], for which, in assay [1], the IC50 was less than 100 nM. Moreover, the half-maximal effective concentration (EC50) in assay [2] lay within 100 to 1000 nM.
For `NC(=O)c1nn(CC(=O)N2[C@@H]3CC[C@@H](C3)[C@H]2C(=O)Nc2cccc(Cl)n2)c2cc(CO)ccc12` [Example 125, 1-(2-((1R,3S,4S)-3-((6-chloropyridin-2-yl)carbamoyl)-2-azabicyclo[2.2.1]heptan-2-yl)-2-oxoethyl)-6-(hydroxymethyl)-1H-indazole-3-carboxamide] the same measures were 100 to 1000 nM and 100 to 1000 nM.
In the case of `COc1ccc(Cl)nc1NC(=O)[C@@H]1[C@H]2CC[C@H](C2)N1C(=O)Cn1nc(C(N)=O)c2ccccc21` [Example 96, 1-(2-((1R,3S,4S)-3-((6-chloro-3-methoxypyridin-2-yl)carbamoyl)-2-azabicyclo[2.2.1]heptan-2-yl)-2-oxoethyl)-1H-indazole-3-carboxamide], the 50% inhibitory concentration (IC50) in assay [1] is less than 100 nM. The EC50 in assay [2] was less than 100 nM.
Consider `CC(=O)c1nn(CC(=O)N2CC[C@H]2C(=O)NCc2cccc(Cl)c2F)c2ccccc12` [Example 190, (S)-1-(2-(3-acetyl-1H-indazol-1-yl)acetyl)-N-(3-chloro-2-fluorobenzyl)azetidine-2-carboxamide], for which the concentration for half-maximal inhibition (IC50) in assay [1] is less than 100 nM. Further, the EC50 in assay [2] was less than 100 nM.
With `NC(=O)c1nn(CC(=O)N2[C@@H]3CC[C@@H](C3)[C@H]2C(=O)Nc2cncc(Cl)n2)c2ccccc12` [Example 59, 1-(2-((1R,3S,4S)-3-((6-chloropyrazin-2-yl)carbamoyl)-2-azabicyclo[2.2.1]heptan-2-yl)-2-oxoethyl)-1H-indazole-3-carboxamide], the half-maximal inhibitory concentration (IC50) in assay [1] is less than 100 nM. For the same compound, the 50% effective concentration (EC50) in assay [2] is 100 to 1000 nM.
For the compound `NC(=O)c1nn(CC(=O)N2[C@H](C(=O)Nc3cccc(Cl)n3)C[C@@H]3CCC[C@@H]32)c2ccccc12` [Example 159, 1-(2-((2S,3aS,6aS)-2-((6-chloropyridin-2-yl)carbamoyl)hexahydrocyclopenta[b]pyrrol-1(2H)-yl)-2-oxoethyl)-1H-indazole-3-carboxamide], in assay [1], the IC50 is 100 to 1000 nM. Besides, the EC50 in assay [2] lay within 100 to 1000 nM.
On to `NC(=O)c1nn(CC(=O)N2C3CCC(C3)[C@H]2C(=O)Nc2cccc(Cl)n2)c2ccc(C3CC3)cc12` (stereo partly drawn) [Example 11, 1-(2-((3S)-3-((6-chloropyridin-2-yl)carbamoyl)-2-azabicyclo[2.2.1]heptan-2-yl)-2-oxoethyl)-5-cyclopropyl-1H-indazole-3-carboxamide], for which the IC50 in assay [1] lay in the range of 100 to 1000 nM. Besides, in assay [2], the EC50 was 1000 to 10000 nM.
For `NC(=O)c1nn(CC(=O)N2[C@@H]3CC[C@@H](C3)[C@H]2C(=O)Nc2cccc(Cl)n2)c2cc(N)ccc12` [Example 93, 6-amino-1-(2-((1R,3S,4S)-3-((6-chloropyridin-2-yl)carbamoyl)-2-azabicyclo[2.2.1]heptan-2-yl)-2-oxoethyl)-1H-indazole-3-carboxamide 2,2,2-trifluoroacetate] the same measures were 100 to 1000 nM and 100 to 1000 nM.

As a reminder, the IC50 is the midpoint of a concentration-inhibition curve. One may read the EC50 as the concentration at which the effect is half-maximal.
